Assays:
[1] = tested on: Burkitt's lymphoma cells; assay: Athymic nude mouse model with transplanted Burkitt's lymphoma cells, survival after treatment; format: in vivo; settings: 36 at start
Protocol: A model based on transplantation of Burkitt's lymphoma cell in athymic nude mice was used (Gurtsevitch et al., 1988, Int J Cancer 15;41(1):87-95). The model was set up as described in Shiyan Dongwu Yu Zhongliu Yanjiu (Experimental Animal & Tumor Research), April 2000, by Chinese Medical Technology Publisher. Essentially, seven week old mice were injected intravenously each with 1×10^6 Burkitt's lymphoma cells.
Twenty-one days after the injection of lymphoma cells, the mice were divided into two series of five groups: one series received treatment for 30 days, the other series received treatment for 60 days. […] The mice in group A received saline orally. The mice in group B received subcutaneous injection of cyclophosphamide at a dose of 30 mg per kg body weight per day. Group C received subcutaneous injection of cyclophosphamide at a dose of 45 mg per kg body weight per day. The mice in group D received 0.3 ml of the oral composition per day. Group E received 0.5 ml of the oral composition per day.
After the 30-day or 60-day treatment, the mice were fed a normal diet and allowed to live under the same environment. The health and survival of the nude mice were observed and compared over 360 days.
Each group consisted of 36 mice at the beginning of the experiment (3 repeats). The total number of surviving mice in each group were counted at the end of every month up to 12 months after treatment stopped.

[2] = tested on: spontaneous lymphoma; assay: Inbred PBA mouse model of lymphoma, survival after treatment; format: in vivo; settings: 36 at start
Protocol: A model based on inbred PBA mice which manifest a high incidence of tumor was used (Bailey et al., 1970, J Natl. Cancer Inst. 45(1):59-73). Mice six to eight weeks old were treated by the method as described in Shiyan Dongwu Yu Zhongliu Yanjiu (Experimental Animal & Tumor Research), April 2000, by Chinese Medical Technology Publisher.
In the first series, the mice in group AY received 0.3 ml of the oral composition of the invention per day. The mice in group NY received 0.3 ml per day of a composition comprising at a similar concentration the same strain of yeast which had not been activated and conditioned. The mice in group CTX received subcutaneous injection of cyclophosphamide at a dose of 30 mg per kg body weight per day. […] The experiment was carried out over a 30-day treatment period.
In the second series, the mice in group 2AY received 0.5 ml of the oral composition of the invention per day. The mice in group 2NY received 0.5 ml per day of a composition comprising the same strain of yeast which had not been activated and conditioned at a similar concentration. The mice in group 2CTX received subcutaneous injection of cyclophosphamide at a dose of 45 mg per kg body weight per day. […] The experiment was carried out over a 60-day treatment period.
After the 30-day or 60-day treatment, the mice were fed a normal diet and allowed to live under the same environment. The health and survival of the mice were observed and compared over 180 days.
Each group consisted of 36 mice at the beginning of the experiment (3 repeats). The total number of surviving mice in each group were counted at the end of every month up to 6 months after treatment stopped.

Measured: total number of surviving mice

O=P1(N(CCCl)CCCl)NCCCO1 (stereo not drawn) [cyclophosphamide]
34: [1]; 45 mg/kg per day s.c. (group C), 60-day treatment, day 0 after treatment period | [1]; 45 mg/kg per day s.c. (group C), 60-day treatment, day 30 after treatment period | [1]; 45 mg/kg per day s.c. (group C), 60-day treatment, day 60 after treatment period
33: [1]; 30 mg/kg per day s.c. (group B), 30-day treatment, day 30 after treatment period | [1]; 30 mg/kg per day s.c. (group B), 60-day treatment, day 60 after treatment period | [2]; 30 mg/kg per day s.c., 30-day treatment, day 30 after treatment period
0: [1]; 30 mg/kg per day s.c. (group B), 30-day treatment, day 210 after treatment period | [1]; 30 mg/kg per day s.c. (group B), 30-day treatment, day 240 after treatment period | [1]; 30 mg/kg per day s.c. (group B), 30-day treatment, day 270 after treatment period | [1]; 30 mg/kg per day s.c. (group B), 30-day treatment, day 300 after treatment period | [1]; 30 mg/kg per day s.c. (group B), 30-day treatment, day 330 after treatment period | [1]; 30 mg/kg per day s.c. (group B), 30-day treatment, day 360 after treatment period | [1]; 30 mg/kg per day s.c. (group B), 60-day treatment, day 240 after treatment period | [1]; 30 mg/kg per day s.c. (group B), 60-day treatment, day 270 after treatment period | [1]; 30 mg/kg per day s.c. (group B), 60-day treatment, day 300 after treatment period | [1]; 30 mg/kg per day s.c. (group B), 60-day treatment, day 330 after treatment period | [1]; 30 mg/kg per day s.c. (group B), 60-day treatment, day 360 after treatment period | [1]; 45 mg/kg per day s.c. (group C), 30-day treatment, day 270 after treatment period | [1]; 45 mg/kg per day s.c. (group C), 30-day treatment, day 300 after treatment period | [1]; 45 mg/kg per day s.c. (group C), 30-day treatment, day 330 after treatment period | [1]; 45 mg/kg per day s.c. (group C), 30-day treatment, day 360 after treatment period | [1]; 45 mg/kg per day s.c. (group C), 60-day treatment, day 240 after treatment period | [1]; 45 mg/kg per day s.c. (group C), 60-day treatment, day 270 after treatment period | [1]; 45 mg/kg per day s.c. (group C), 60-day treatment, day 300 after treatment period | [1]; 45 mg/kg per day s.c. (group C), 60-day treatment, day 330 after treatment period | [1]; 45 mg/kg per day s.c. (group C), 60-day treatment, day 360 after treatment period | [2]; 30 mg/kg per day s.c., 30-day treatment, day 150 after treatment period | [2]; 30 mg/kg per day s.c., 30-day treatment, day 180 after treatment period
5: [1]; 30 mg/kg per day s.c. (group B), 30-day treatment, day 120 after treatment period | [1]; 30 mg/kg per day s.c. (group B), 60-day treatment, day 180 after treatment period
35: [1]; 30 mg/kg per day s.c. (group B), 60-day treatment, day 0 after treatment period | [1]; 30 mg/kg per day s.c. (group B), 60-day treatment, day 30 after treatment period | [1]; 45 mg/kg per day s.c. (group C), 30-day treatment, day 0 after treatment period | [1]; 45 mg/kg per day s.c. (group C), 30-day treatment, day 30 after treatment period
12: [1]; 45 mg/kg per day s.c. (group C), 60-day treatment, day 150 after treatment period
7: [1]; 45 mg/kg per day s.c. (group C), 60-day treatment, day 180 after treatment period
19: [1]; 30 mg/kg per day s.c. (group B), 60-day treatment, day 120 after treatment period | [1]; 45 mg/kg per day s.c. (group C), 60-day treatment, day 120 after treatment period | [2]; 30 mg/kg per day s.c., 30-day treatment, day 90 after treatment period
24: [1]; 30 mg/kg per day s.c. (group B), 30-day treatment, day 60 after treatment period | [1]; 30 mg/kg per day s.c. (group B), 60-day treatment, day 90 after treatment period
8: [2]; 30 mg/kg per day per table head (45 mg/kg elsewhere in the source) s.c., 60-day treatment (group 2CTX), day 180 after treatment period
4: [1]; 45 mg/kg per day s.c. (group C), 30-day treatment, day 180 after treatment period
3: [1]; 30 mg/kg per day s.c. (group B), 30-day treatment, day 150 after treatment period | [1]; 45 mg/kg per day s.c. (group C), 60-day treatment, day 210 after treatment period
17: [1]; 45 mg/kg per day s.c. (group C), 30-day treatment, day 120 after treatment period | [2]; 30 mg/kg per day s.c., 30-day treatment, day 120 after treatment period
29: [2]; 30 mg/kg per day per table head (45 mg/kg elsewhere in the source) s.c., 60-day treatment (group 2CTX), day 60 after treatment period
2: [1]; 30 mg/kg per day s.c. (group B), 60-day treatment, day 210 after treatment period | [1]; 45 mg/kg per day s.c. (group C), 30-day treatment, day 210 after treatment period
14: [1]; 30 mg/kg per day s.c. (group B), 30-day treatment, day 90 after treatment period | [2]; 30 mg/kg per day per table head (45 mg/kg elsewhere in the source) s.c., 60-day treatment (group 2CTX), day 120 after treatment period | [2]; 30 mg/kg per day per table head (45 mg/kg elsewhere in the source) s.c., 60-day treatment (group 2CTX), day 150 after treatment period
21: [1]; 45 mg/kg per day s.c. (group C), 30-day treatment, day 90 after treatment period | [2]; 30 mg/kg per day per table head (45 mg/kg elsewhere in the source) s.c., 60-day treatment (group 2CTX), day 90 after treatment period
9: [1]; 30 mg/kg per day s.c. (group B), 60-day treatment, day 150 after treatment period
27: [1]; 45 mg/kg per day s.c. (group C), 30-day treatment, day 60 after treatment period | [1]; 45 mg/kg per day s.c. (group C), 60-day treatment, day 90 after treatment period | [2]; 30 mg/kg per day s.c., 30-day treatment, day 60 after treatment period
11: [1]; 45 mg/kg per day s.c. (group C), 30-day treatment, day 150 after treatment period
1: [1]; 30 mg/kg per day s.c. (group B), 30-day treatment, day 180 after treatment period | [1]; 45 mg/kg per day s.c. (group C), 30-day treatment, day 240 after treatment period
36: [1]; 30 mg/kg per day s.c. (group B), 30-day treatment, day 0 after treatment period | [2]; 30 mg/kg per day per table head (45 mg/kg elsewhere in the source) s.c., 60-day treatment (group 2CTX), day 0 after treatment period | [2]; 30 mg/kg per day per table head (45 mg/kg elsewhere in the source) s.c., 60-day treatment (group 2CTX), day 30 after treatment period | [2]; 30 mg/kg per day s.c., 30-day treatment, day 0 after treatment period

Source: patent US20040253262A1, “Biological compositions and methods for treatment of lymphoma” (priority 2003, published 2004)
